Measured values from US10995357B2, “Rapid antimicrobial susceptibility testing based on a unique spectral intensity ratio analysis via single fluorescence membrane dye staining and flow cytometry” (POCARED Diagnostics LTD., priority 2017, dated 2021).
Like-named read-outs stand apart in the source and are kept apart here.

Legend:
Assay type in all cases: cell-based
K. pneumonia = assay: Rapid AST/MIC by spectral intensity ratio (SIR), FM 1-43 staining and flow cytometry, directly from positive blood culture; conditions: 2-4 hours antibiotic exposure, SIR step function fit
Experimental: (§1) In general, the method includes; blood culture centrifugation, bacterial antimicrobial exposure for 2 to 4 hours, bacteria staining with a single fluorescence dye followed by a flow cytometric measurement, and mathematical analysis.
(§2) 31 positive blood cultures were obtained from Sheba Medical Center (Ramat-Gan, Israel) and tested for antimicrobial susceptibility with gentamicin and ampicillin antibiotics (Sigma-Aldrich, USA). A total of 62 positive blood samples-antibiotics combinations were tested. • a) Positive blood samples were received from Sheba Medical Center, 2 ml of each sample were centrifuged for 15 min at 24×g and Supernatants were diluted 1:1000 with Cation-Adjusted Mueller Hinton Broth (CAMHB). • b) Antimicrobial stock solutions were prepared according to CLSI recommendations, and were diluted in CAMHB, to a concentration which was 2 fold higher from the highest concentration recommended for each antimicrobial combination (“Class II Special Controls Guidance Document: Antimicrobial Susceptibility Test (AST) Systems”, Aug. […] As a positive control, a tube with bacterial sample solution (a) without antimicrobial agent. • h) All tubes were incubated at 37° C. • i) 2-4 hours from incubation initiation, 200 μl from each tube were transferred into a fresh tube, dyed with 2 μl of Synaptogreen or FM 1-43 (Sigma-Aldrich; Molecular Probes, respectively) and measured by a flow cytometer. The rest of the sample was further incubated for 16-20 hours and then was visually evaluated for growth.
(§3) In order to quantify the influence of a certain antimicrobial exposure we define the spectral intensity ratio (SIR) as follows: […]
(§4) The MIC is calculated by plotting the spectral intensity ratio (SIR) as a function of the antimicrobial concentration and approximating it to a step function in the form of […]

C. freundii = assay: Rapid AST/MIC by spectral intensity ratio (SIR), FM 1-43 staining and flow cytometry, from clinical isolates; conditions: C. freundii clinical isolate; up to 32 μg/ml; SIR almost constant
Experimental: (§5) Our method includes bacterial antimicrobial treatment for 2 to 4 hours, bacteria staining with a single fluorescence dye followed by a flow cytometric measurement, and mathematical analysis. The following paragraphs describe the method in details.
(§6) A total of 90 isolates-antibiotics combinations were tested. • a) All strains were cultured onto 5% sheep blood agar (Hylabs, Israel), following overnight incubation, colonies were harvested and suspended in Phosphate Buffer Saline (PBS, Sigma-Aldrich). […] The rest of the sample was further incubated for 16-20 hours and then was visually evaluated for growth.
(§7) In order to quantify the influence of a certain antimicrobial treatment, we define the spectral intensity ratio (SIR) as follows: […]
(§8) The MIC is calculated by plotting the spectral intensity ratio (SIR) as a function of the antimicrobial concentration and approximating it to a step function in the form of
(§9) Where a, b, and c are parameters and erf is the error function. The parameters are used to approximate the measured SIR to a step function; a is a scaling parameter, b determines the step slope, and c is the MIC value. […]

E. coli [1] = assay: as above; conditions: E. coli clinical isolate; 2-4 hours antibiotic exposure; SIR step function fit
Experimental: as §5, §6, §7, §8, §9

[2] = test system: 31 positive blood cultures (E. coli, K. pneumonia, A. baummanii, P. mirabilis, E. cloacae, Aeromonass spp., K. oxytoca); assay: Reference macro dilution method, visual growth after 16-20 hours, positive blood cultures; conditions: for Reference Method Susceptibilities I: number of strains intermediate out of 31 positive blood cultures; for Reference Method Susceptibilities R: number of strains resistant out of 31 positive blood cultures; for Reference Method Susceptibilities S: number of strains susceptible out of 31 positive blood cultures
Experimental: 31 positive blood cultures were obtained from Sheba Medical Center (Ramat-Gan, Israel) and tested for antimicrobial susceptibility with gentamicin and ampicillin antibiotics (Sigma-Aldrich, USA). A total of 62 positive blood samples-antibiotics combinations were tested. • a) Positive blood samples were received from Sheba Medical Center, 2 ml of each sample were centrifuged for 15 min at 24×g and Supernatants were diluted 1:1000 with Cation-Adjusted Mueller Hinton Broth (CAMHB). • b) Antimicrobial stock solutions were prepared according to CLSI recommendations, and were diluted in CAMHB, to a concentration which was 2 fold higher from the highest concentration recommended for each antimicrobial combination (“Class II Special Controls Guidance Document: Antimicrobial Susceptibility Test (AST) Systems”, Aug. 28, 2009, FDA). • c) For each sample/antimicrobial combination, a set of tubes was prepared for which 1 ml of CAMHB medium was added, except for the first tube. • d) To each first tube of the set, 2 ml from the antimicrobial stock solution (b) was dispensed. • e) From the first tube a serial dilutions of 2 folds were prepared by transferring 1 ml of the solution to the next tube until the lowest required concentration by CLSI. 1 ml was discarded from the last tube in each set of tubes. • f) To each tube in the set, 1 ml of bacterial sample solution (a) was added. • g) For each serial dilutions set, two controls were added. As a negative control, a tube with 2 ml of CAMHB. As a positive control, a tube with bacterial sample solution (a) without antimicrobial agent. • h) All tubes were incubated at 37° C. • i) 2-4 hours from incubation initiation, 200 μl from each tube were transferred into a fresh tube, dyed with 2 μl of Synaptogreen or FM 1-43 (Sigma-Aldrich; Molecular Probes, respectively) and measured by a flow cytometer. The rest of the sample was further incubated for 16-20 hours and then was visually evaluated for growth.
62 samples (31 positive blood cultures and 2 antibiotics combination) were analyzed in triplicates. Each sample was measured by the flow cytometer and the MIC was calculated using the spectral intensity ratio (SIR) calculation and step function estimation. The bacteria identified within the samples were; E. coli (15 samples), K. pneumonia (6 samples), A. baummanii (4 samples), P. mirabilis (2 samples), E. cloacae (2 samples), Aeromonass spp. (1 sample), and K. oxytoca (1 sample).
Tables 1 and 2 present the results of the positive blood sample experiment using the macro dilution as the reference method. […] There are no errors as defined by “Class II Special Controls Guidance Document: Antimicrobial Susceptibility Test (AST) Systems,” Aug. 28, 2009, FDA.

[3] = test system: 30 clinical isolates of E. coli, K. pneumoniae, E. cloacae, P. mirabilis, and C. freundii; assay: Reference macro dilution method, visual growth after 16-20 hours, clinical isolates; conditions: for Reference Method Susceptibilities I: number of strains intermediate out of 30 clinical isolates; for Reference Method Susceptibilities R: number of strains resistant out of 30 clinical isolates; for Reference Method Susceptibilities S: number of strains susceptible out of 30 clinical isolates
Experimental: A total of 90 isolates-antibiotics combinations were tested. • a) All strains were cultured onto 5% sheep blood agar (Hylabs, Israel), following overnight incubation, colonies were harvested and suspended in Phosphate Buffer Saline (PBS, Sigma-Aldrich). […] 1 ml was discarded from the last tube in each set of tubes. • g) For each serial dilutions set, two controls were added. As a negative control, a tube with 2 ml of CAMHB. […] The rest of the sample was further incubated for 16-20 hours and then was visually evaluated for growth.

E. coli [4] = assay: Rapid AST/MIC by spectral intensity ratio (SIR), FM 1-43 staining and flow cytometry, directly from positive blood culture; conditions: E. coli strain from positive blood culture; scatter plot unchanged at high antibiotic concentrations
Experimental: as §1, §2, §3, §4

Compound | MIC (K. pneumonia) [µg/mL] | Susceptibility (SIR as a function of antibiotic concentration) (C. freundii) | MIC (E. coli [1]) [µg/mL] | Reference Method Susceptibilities I [2] | Reference Method Susceptibilities R [2] | Reference Method Susceptibilities S [2] | Reference Method Susceptibilities I [3] | Reference Method Susceptibilities R [3] | Reference Method Susceptibilities S [3] | Susceptibility (SIR as a function of antibiotic concentration) (E. coli [4]) | MIC (K. pneumonia; Klebsiella pneumoniae, read-out: MIC) [µg/mL]
gentamicin | 1 | resistant | 2 | 0 | 10 | 21 | 4 | 5 | 21 | – | –
CC1(C)S[C@@H]2[C@H](NC(=O)[C@H](N)c3ccccc3)C(=O)N2[C@H]1C(=O)O [Ampicillin, ampicillin] | – | – | – | 0 | 26 | 5 | 5 | 9 | 16 | resistant | 4
